Test [1] deals with T1, Eukaryotic initiation factor 4A-I (Homo sapiens, UniProt P60842). The experiment in a line: Uncompetitive inhibition of human recombinant N-terminal His6-tagged eIF4A expressed in Escherichia coli BL21 CodonPlus cells assessed as decrease in Km and Vmax of ATP using varying concentrations of ATP and 250 ug/ml yeast RNA as substrate preincubated with enzyme for 20 mins followed by substrate addition and measured after 1 to 7 hrs by Malachite green ATPase assay. Conditions: time 80-440 min.

The target in test [2] is T1, Eukaryotic initiation factor 4A-I. Kind of test: Competitive inhibition of human recombinant N-terminal His6-tagged eIF4A expressed in Escherichia coli BL21 CodonPlus cells assessed as […] with constant Vmax of RNA using 250 uM ATP and varying concentration of yeast RNA as substrate preincubated with enzyme for 20 mins followed by substrate addition and measured after 1 to 7 hrs by Malachite green ATPase assay. To be noted: time 80-440 min.

The target in test [3] is Eukaryotic initiation factor 4A-I (Homo sapiens, UniProt P60842, R110L). The experiment in a line: Inhibition of human recombinant N-terminal His6-tagged eIF4A R110L mutant expressed in Escherichia coli BL21 CodonPlus cells using ATP and yeast RNA as substrate preincubated with enzyme for 20 mins followed by susbtrate addition and measured after 4 hrs by Malachite green ATPase assay.

Test [4] concerns the target Eukaryotic initiation factor 4A-I (Homo sapiens, UniProt P60842, R110M). Kind of test: Inhibition of human recombinant N-terminal His6-tagged eIF4A R110M mutant expressed in Escherichia coli BL21 CodonPlus cells using ATP and yeast RNA as substrate preincubated with enzyme for 20 mins followed by susbtrate addition and measured after 4 hrs by Malachite green ATPase assay.

Test [5] deals with Eukaryotic initiation factor 4A-I (Homo sapiens, UniProt P60842, R110E). The experiment in a line: Inhibition of human recombinant N-terminal His6-tagged eIF4A R110E mutant expressed in Escherichia coli BL21 CodonPlus cells using ATP and yeast RNA as substrate preincubated with enzyme for 20 mins followed by susbtrate addition and measured after 4 hrs by Malachite green ATPase assay.

Test [6] concerns the target Eukaryotic initiation factor 4A-I (Homo sapiens, UniProt P60842, T158A). Kind of test: Inhibition of human recombinant N-terminal His6-tagged eIF4A T158A mutant expressed in Escherichia coli BL21 CodonPlus cells using ATP and yeast RNA as substrate preincubated with enzyme for 20 mins followed by susbtrate addition and measured after 4 hrs by Malachite green ATPase assay.

The target in test [7] is Eukaryotic initiation factor 4A-I (Homo sapiens, UniProt P60842, T158V). Kind of test: Inhibition of human recombinant N-terminal His6-tagged eIF4A T158V mutant expressed in Escherichia coli BL21 CodonPlus cells using ATP and yeast RNA as substrate preincubated with enzyme for 20 mins followed by susbtrate addition and measured after 4 hrs by Malachite green ATPase assay.

Test [8] deals with Eukaryotic initiation factor 4A-I (Homo sapiens, UniProt P60842, R311K). Kind of test: Inhibition of human recombinant N-terminal His6-tagged eIF4A R311K mutant expressed in Escherichia coli BL21 CodonPlus cells using ATP and yeast RNA as substrate preincubated with enzyme for 20 mins followed by susbtrate addition and measured after 4 hrs by Malachite green ATPase assay.
The target in test [9] is Eukaryotic initiation factor 4A-I (Homo sapiens, UniProt P60842, R311E). The experiment in a line: Inhibition of human recombinant N-terminal His6-tagged eIF4A R311E mutant expressed in Escherichia coli BL21 CodonPlus cells using ATP and yeast RNA as substrate preincubated with enzyme for 20 mins followed by susbtrate addition and measured after 4 hrs by Malachite green ATPase assay.

The subject of another test is BJAB. The experiment in a line: Cytotoxicity against human BJAB cells assessed as reduction in cell viability measured after 72 hrs by CellTiter-Glo luminescent assay. In kind it is functional, cell-based. Conditions: Homo sapiens, BJAB, 72 h; read-out: EC50. In general terms: Cellular ATP, detected with luciferase, serves as a proxy for viable cell number.
Test [10] deals with Reticulocyte. Kind of test: Inhibition of eIF4A in rabbit reticulocyte lysate assessed as inhibition of cap-dependent translation of firefly luciferase using bicistronic luciferase reporter [pSP/(CAG)33/FF/HCV/Ren.pA51] incubated for 90 mins by luciferase reporter gene based luminescence analysis. In kind it is subcellular. To be noted: Oryctolagus cuniculus.
For test [11], the system named is Reticulocyte. Kind of test: Inhibition of IRES-dependent translation of renilla luciferase in rabbit reticulocyte lysates using bicistronic luciferase reporter [pSP/(CAG)33/FF/HCV/Ren.pA51] incubated for 90 mins by luciferase reporter gene based luminescence analysis. The format is functional, subcellular. Conditions: Oryctolagus cuniculus. (Reporter assays use an easily measured gene product as a stand-in for the process of interest.)

For test [12], the target named is T1, Eukaryotic initiation factor 4A-I. The experiment in a line: Binding affinity to eIF4A in human A549 cells assessed as increase in thermal stability of the protein incubated for 90 mins by CETSA analysis. In kind it is cell-based. Conditions: dose 0.041-10 µM.
The target is the same in test [13]. The experiment in a line: Displacement of MANT-ATP from human recombinant N-terminal His6-tagged eIF4A expressed in Escherichia coli BL21 CodonPlus cells at 200 uM preincubated with enzyme and yeast RNA for 20 mins followed by MANT-ATP addition for 30 mins by fluorescence polarization assay. To be noted: time 50.0 min.
Test [14] has the same target. Kind of test: Displacement of FAM-[AG]8 from human recombinant N-terminal His6-tagged eIF4A expressed in Escherichia coli BL21 CodonPlus cells preincubated with enzyme for 20 mins followed by FAM-[AG]8 addition for 30 mins by fluorescence polarization assay. To be noted: time 50.0 min. (In general: Polarisation of emitted light reports the rotation of a fluorescent probe.)

Test [15] shares this target. Kind of test: Binding affinity to human recombinant N-terminal His6-tagged eIF4A expressed in Escherichia coli BL21 CodonPlus cells assessed as increase in melting temperature at 3.13 to 50 uM incubated for 5 mins by differential scanning fluorimetry. Conditions: dose 3.13-50 µM.
The target is the same in test [16]. Kind of test: Inhibition of helicase activity of human recombinant N-terminal His6-tagged eIF4A expressed in Escherichia coli BL21 CodonPlus cells assessed as increase in double stranded signal using Cy3-labeled RNA strand and unlabeled DNA strand by native PAGE analysis.
Test [17] has the same target. The experiment in a line: Inhibition of helicase activity of human recombinant N-terminal His6-tagged eIF4A expressed in Escherichia coli BL21 CodonPlus cells assessed as decrease in single stranded signal using Cy3-labeled RNA strand and unlabeled DNA strand by native PAGE analysis.
For test [18] the target is unchanged. Kind of test: Inhibition of helicase activity of human recombinant N-terminal His6-tagged eIF4A expressed in Escherichia coli BL21 CodonPlus cells using Cy3-labeled RNA strand and unlabeled DNA strand by native PAGE analysis.
Test [19] relates to Eukaryotic initiation factor 4A-I (Homo sapiens), P60842 [R110K]. Kind of test: Inhibition of human recombinant N-terminal His6-tagged eIF4A R110K mutant expressed in Escherichia coli BL21 CodonPlus cells using ATP and yeast RNA as substrate preincubated with enzyme for 20 mins followed by susbtrate addition and measured after 4 hrs by Malachite green ATPase assay. To be noted: time 260.0 min.

SMILES strings stand for the structures. The source made the active and inactive calls. The calls are words filed in the database; no cut-off is given here.

The values that follow come from ChEMBL document CHEMBL5241107, “Discovery of an eIF4A Inhibitor with a Novel Mechanism of Action” (J Med Chem, 2021).

T1 sequence (P60842 whole entry): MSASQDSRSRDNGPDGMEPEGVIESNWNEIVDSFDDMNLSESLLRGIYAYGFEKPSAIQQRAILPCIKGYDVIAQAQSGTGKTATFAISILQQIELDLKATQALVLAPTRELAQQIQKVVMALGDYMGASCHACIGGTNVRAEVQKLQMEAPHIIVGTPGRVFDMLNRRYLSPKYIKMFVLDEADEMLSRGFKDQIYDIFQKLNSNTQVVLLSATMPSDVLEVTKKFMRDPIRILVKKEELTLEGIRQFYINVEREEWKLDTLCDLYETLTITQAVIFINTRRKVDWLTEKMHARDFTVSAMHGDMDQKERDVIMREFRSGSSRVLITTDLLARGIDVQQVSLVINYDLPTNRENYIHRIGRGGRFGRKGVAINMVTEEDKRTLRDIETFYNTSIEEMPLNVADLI
Sequence of Eukaryotic initiation factor 4A-I (Homo sapiens, UniProt P60842, T158V) (P60842 2-406 T158V limits assumed): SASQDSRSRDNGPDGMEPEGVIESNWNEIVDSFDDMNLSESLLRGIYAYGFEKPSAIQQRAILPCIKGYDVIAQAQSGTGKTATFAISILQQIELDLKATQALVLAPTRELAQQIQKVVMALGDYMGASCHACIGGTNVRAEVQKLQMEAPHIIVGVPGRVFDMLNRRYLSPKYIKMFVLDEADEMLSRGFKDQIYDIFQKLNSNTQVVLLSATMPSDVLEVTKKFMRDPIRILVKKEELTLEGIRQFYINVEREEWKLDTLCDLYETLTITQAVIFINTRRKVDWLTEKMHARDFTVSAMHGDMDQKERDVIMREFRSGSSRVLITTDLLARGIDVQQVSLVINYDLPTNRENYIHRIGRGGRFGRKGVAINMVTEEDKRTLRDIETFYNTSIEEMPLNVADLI
Sequence of Eukaryotic initiation factor 4A-I (Homo sapiens, UniProt P60842, R311K) (P60842 2-406 R311K limits assumed): as the sequence (P60842 2-406 T158V limits assumed) above, with V157T, R310K counted along it
Sequence of Eukaryotic initiation factor 4A-I (Homo sapiens), P60842 [R110K] (P60842 whole entry R110K): as the sequence (P60842 whole entry) above, with R110K counted along it
Sequence of Eukaryotic initiation factor 4A-I (Homo sapiens, UniProt P60842, R110M) (P60842 2-406 R110M limits assumed): as the sequence (P60842 2-406 T158V limits assumed) above, with R109M, V157T counted along it
Sequence of Eukaryotic initiation factor 4A-I (Homo sapiens, UniProt P60842, R311E) (P60842 2-406 R311E limits assumed): as the sequence (P60842 2-406 T158V limits assumed) above, with V157T, R310E counted along it
Sequence of Eukaryotic initiation factor 4A-I (Homo sapiens, UniProt P60842, R110E) (P60842 2-406 R110E limits assumed): as the sequence (P60842 2-406 T158V limits assumed) above, with R109E, V157T counted along it
Sequence of Eukaryotic initiation factor 4A-I (Homo sapiens, UniProt P60842, R110L) (P60842 2-406 R110L limits assumed): as the sequence (P60842 2-406 T158V limits assumed) above, with R109L, V157T counted along it
Sequence of Eukaryotic initiation factor 4A-I (Homo sapiens, UniProt P60842, T158A) (P60842 2-406 T158A limits assumed): as the sequence (P60842 2-406 T158V limits assumed) above, with V157A counted along it

A word on the IC50: it is the concentration at which inhibition is half-maximal. The term EC50 denotes the concentration needed to bring the measured effect to its halfway point. On to `CCCCc1ccc(-c2ccc(-c3cc(C(=O)O)c4cc([N+](=O)[O-])ccc4n3)o2)cc1`, for which the inhibition result (in test [1]; in test [2]; with Reticulocyte [10]; in test [14]; in test [16]; in test [17]) was “Active” each time. Moreover, the inhibition result in [19] was “Active”. Besides, the IC50 in test [3], in test [4], in test [5], in [6], in [7] and in test [8] was greater than 50 µM in each case. The IC50 in [9] was greater than 50 µM; in test [18], 6.58 µM. In addition, the EC50 in the test on BJAB amounted to 0.463 µM. Further, the inhibition result (in the test with Reticulocyte [11]; in test [13]) was “inactive” in each case. Besides, in test [12], the Activity result was “Dose-Dependent Effect”. The outcome in [15] was Active.
